From the NIST ThermoML archive (doi:10.1021/acs.jced.6b00178)
Numbers after ± are expanded uncertainties.

Assay: xn = mol fraction of the nth substance listed
Conditions: 100 kPa, Liquid; for viscosity: Concentric cylinders viscometry; for mass density: Vibrating tube method

CCCCn1cc[n+](C)c1.O=S(=O)([O-])C(F)(F)F [1-butyl-3-methylimidazolium trifluoromethanesulfonate] + CCCC[n+]1ccn(C)c1.O=S(=O)([N-]S(=O)(=O)C(F)(F)F)C(F)(F)F
Conditions | mass density, x2 = 0 [kg/m3] | mass density, x2 = 0.25 [kg/m3] | mass density, x2 = 0.5 [kg/m3] | mass density, x2 = 0.746 [kg/m3] | viscosity, x2 = 0 [mPa·s] | viscosity, x2 = 0.25 [mPa·s] | viscosity, x2 = 0.5 [mPa·s] | viscosity, x2 = 0.746 [mPa·s]
283.15 K | 1308.4 ± 0.7 | 1352.7 ± 0.7 | 1389 ± 0.7 | 1421.8 ± 0.7 | 225.61 ± 12 | 154.7 ± 8.1 | 145 ± 7.5 | 145.79 ± 7.6
288.15 K | 1304.3 ± 0.7 | 1348.3 ± 0.7 | 1384.4 ± 0.7 | 1417.1 ± 0.7 | 168.05 ± 8.8 | 117.06 ± 6 | 109.34 ± 5.6 | 111.5 ± 5.7
293.15 K | 1300.3 ± 0.7 | 1344 ± 0.7 | 1379.9 ± 0.7 | 1412.4 ± 0.7 | 128.51 ± 6.6 | 90.69 ± 4.6 | 84.53 ± 4.3 | 87.3 ± 4.4
298.15 K | 1296.3 ± 0.7 | 1339.8 ± 0.7 | 1375.5 ± 0.7 | 1407.8 ± 0.7 | 99.14 ± 5.1 | 71.42 ± 3.6 | 66.62 ± 3.4 | 68.68 ± 3.5
303.15 K | 1292.3 ± 0.7 | 1335.5 ± 0.7 | 1371 ± 0.7 | 1403.2 ± 0.7 | 78.26 ± 4 | 57.29 ± 2.9 | 53.39 ± 2.7 | 55.86 ± 2.8
308.15 K | 1288.4 ± 0.7 | 1331.3 ± 0.7 | 1366.6 ± 0.7 | 1398.6 ± 0.7 | 62.76 ± 3.2 | 46.66 ± 2.3 | 43.56 ± 2.2 | 45.8 ± 2.3
313.15 K | 1284.5 ± 0.7 | 1327 ± 0.7 | 1362.2 ± 0.7 | 1394 ± 0.7 | 51.33 ± 2.6 | 38.52 ± 1.9 | 35.96 ± 1.8 | 38.1 ± 1.9
318.15 K | 1280.6 ± 0.7 | 1322.8 ± 0.7 | 1357.8 ± 0.7 | 1389.4 ± 0.7 | 42.1 ± 2.1 | 32.19 ± 1.6 | 30.15 ± 1.5 | 32.2 ± 1.6
323.15 K | 1276.7 ± 0.7 | 1318.7 ± 0.7 | 1353.5 ± 0.7 | 1384.9 ± 0.7 | 35.13 ± 1.8 | 27.21 ± 1.4 | 25.43 ± 1.3 | 27.44 ± 1.4
328.15 K | 1272.8 ± 0.7 | 1314.5 ± 0.7 | 1349.2 ± 0.7 | 1380.4 ± 0.7 | 29.63 ± 1.5 | 23.24 ± 1.2 | 21.66 ± 1.1 | 23.47 ± 1.2
333.15 K | 1268.9 ± 0.7 | 1310.4 ± 0.7 | 1344.9 ± 0.7 | 1376 ± 0.7 | 25.5 ± 1.3 | 20.06 ± 1 | 18.55 ± 0.93 | 20.27 ± 1
338.15 K | 1265.1 ± 0.7 | 1306.2 ± 0.7 | 1340.6 ± 0.7 | 1371.5 ± 0.7 | 21.72 ± 1.1 | 17.4 ± 0.88 | 16.08 ± 0.81 | 17.6 ± 0.89
343.15 K | 1261.3 ± 0.6 | 1302.2 ± 0.7 | 1336.3 ± 0.7 | 1367.1 ± 0.7 | 18.84 ± 0.95 | 15.23 ± 0.77 | 14.13 ± 0.71 | 15.46 ± 0.78
348.15 K | 1257.5 ± 0.6 | 1298.1 ± 0.7 | 1332 ± 0.7 | 1362.6 ± 0.7 | 16.47 ± 0.83 | 13.43 ± 0.68 | 12.54 ± 0.63 | 13.66 ± 0.69
353.15 K | 1253.7 ± 0.6 | 1294 ± 0.7 | 1327.8 ± 0.7 | 1358.2 ± 0.7 | 14.83 ± 0.75 | 11.94 ± 0.6 | 11.18 ± 0.56 | 12.23 ± 0.62
358.15 K | 1249.9 ± 0.6 | 1290 ± 0.7 | 1323.5 ± 0.7 | 1353.8 ± 0.7 | 12.86 ± 0.65 | 10.63 ± 0.54 | 9.981 ± 0.5 | 10.93 ± 0.55
363.15 K | 1246.2 ± 0.6 | 1286.1 ± 0.7 | 1319.3 ± 0.7 | 1349.5 ± 0.7 | 11.48 ± 0.58 | 9.541 ± 0.48 | 8.973 ± 0.45 | 9.909 ± 0.5
